Test results as given in PubChem BioAssay (NCI).
Values joined by “and” are separate entries in the source; they are usually repeats but may differ in a detail not shown here. Equal values may be shown once.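 Dose response: 5 concentrations. Exposure: 48 h. Format: 96-well plates. Endpoint: linear interpolation; highest concentration if not reached. Abbreviation: GI50, concentration required for 50% inhibition of growth. TGI denotes the concentration required for complete inhibition of growth.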

Test system: OVCAR-8 ovarian
Test: NCI tumour cell line growth inhibition, 48 h

| SMILES | GI50 | TGI |
| --- | --- | --- |
| C#CCOc1cccc(Nc2ncnc3c(NC(=O)C=C)cccc23)c1 | 21000 nM | 70.1 µM |
| CO[C@H]1Nc2c(ccc(C)c2O)C(=O)N2C=C(/C=C/C(N)=O)C[C@@H]12 |  | 2.01 µM |
| O=C(/C(=C\c1c(-c2ccccc2)[nH]c2ccccc12)S(=O)(=O)c1ccccc1)c1ccccc1 | > 100000 nM | > 100 µM |
| COc1ccc(C(=O)c2cc(OC)c(OC)c(OC)c2)cc1OC |  | > 100 µM |
| CCNC(=O)/C(=C/c1ccc(OC)cc1)c1cc(OC)c(OC)c(OC)c1 |  | > 100 µM |
| CCCc1cc(=O)n2c(C(=O)Nc3ccc(Cl)cc3C)c(C(=O)Nc3ccc(F)cc3)sc2n1 | 2050 nM | 5.14 µM |
| Cc1ccc(OCCOCCOCCOCCOc2ccc(C)n(O)c2=S)c(=S)n1O | < 13.7 nM | > 100 µM |
| N[C@H](CCC(=O)N[C@@H](Cc1c[nH]c2ccccc12)C(=O)O)C(=O)O | > 100000 nM | > 100 µM |
| CN(C)CCNCCN |  | > 100 µM |
| Nc1ccccc1O.O.O=C(O)C1[O][Sb][O]C1C(=O)O (stereo not drawn) | 14900 nM | 32.9 µM |
| O=C(c1ccco1)c1c(C(F)(F)F)n([O-])c2ccc(C(F)(F)F)cc2[n+]1=O | 310 nM | 1.15 µM |
| OC(c1cc(-c2ccc(C(F)(F)F)cc2)nc(C(F)(F)F)c1)C1CCCCN1 (stereo not drawn) | 1870 nM and 2200 nM | 3.62 µM and 4.59 µM |
| CC(C)CC(C/C=C1/CC(CO)(COC(=O)C(C)(C)C)OC1=O)CC(C)C (stereo not drawn) |  | 32.9 µM and 38.7 µM |
| O=C(Nc1cc(Nc2ncccc2-c2ncnc3nc[nH]c23)ccc1F)c1cc(C(F)(F)F)cc(C(F)(F)F)c1 | 3670 nM | > 10 µM |
| CCc1ccc2c(c1)C(=O)c1c-2n(CCCN=[N+]=[N-])c(=O)c2cc([N+](=O)[O-])ccc12 | > 50000 nM | > 50 µM |
| CCC/C=C/C=C/C1CC(O)C(O)C(=O)C1CO (stereo not drawn) |  | > 100 µM |

Test system: MOLT-4 leukemia
Test: NCI tumour cell line growth inhibition, 48 h

| SMILES | GI50 | TGI |
| --- | --- | --- |
| O=C1CCCN1c1ccccc1I(=O)=O | > 100 µM | > 100 µM |
| COC(=O)C1=COC(C)C2CN3CCc4c([nH]c5ccccc45)C3CC12 (stereo not drawn) | 11 µM and 28.3 µM | 32.7 µM and > 100 µM |
| O=C(NCc1ccc(Cn2c(=O)sn(-c3ccccc3)c2=O)cc1)OCc1ccc2cccc(O)c2n1 | 0.785 µM | > 24.3 µM |
| COC(c1ccc(C(C)(C)C)cc1)(c1ccc(C(C)(C)C)cc1)c1ccc(C(C)(C)C)cc1 |  | > 100 µM |
| CC(C)c1[nH]nc2c1N=C(c1ccccc1Cl)c1cc([N+](=O)[O-])ccc1N2 | 6.76 µM | 20.6 µM |
| Nc1cc2c(cc1Br)[nH]c(=O)c1ccccc12 | 4.03 µM | 43 µM |
| COc1ccc(-c2nccn2-c2ccc(OC)cc2)cc1 | 27.4 µM | 89.4 µM |
| O=C(/C=C/c1ccccc1)c1ccccc1 |  | > 3.16 µM |
| CC(C)[C@H](O)C(=O)N[C@@H](C)C(=O)N[C@@H]1C(=O)N(C)CCc2ccccc21 | > 100 µM | > 100 µM |
| C=CC(=O)N1CN(C(=O)C=C)CN(C(=O)C=C)C1 | 2.71 µM | 8.05 µM |
| COc1ccc(-c2cnnn2-c2nonc2-n2cccc2)cc1 | 0.498 µM | 12.6 µM |
| ClC(Cl)=C1C(=C(Cl)Cl)C(Cl)(Cl)C1(Cl)Cl | 0.278 µM | 0.715 µM and 2 µM |
| C#CCOc1cccc(Nc2ncnc3c(NC(=O)C=C)cccc23)c1 | 19.4 µM | > 100 µM |
| CO[C@H]1Nc2c(ccc(C)c2O)C(=O)N2C=C(/C=C/C(N)=O)C[C@@H]12 |  | 6.29 µM |
| COc1ccc(C(=O)c2cc(OC)c(OC)c(OC)c2)cc1OC |  | > 100 µM |
| CCNC(=O)/C(=C/c1ccc(OC)cc1)c1cc(OC)c(OC)c(OC)c1 |  | > 100 µM |
| CCCc1cc(=O)n2c(C(=O)Nc3ccc(Cl)cc3C)c(C(=O)Nc3ccc(F)cc3)sc2n1 | 3.99 µM | 22.2 µM |
| Cc1ccc(OCCOCCOCCOCCOc2ccc(C)n(O)c2=S)c(=S)n1O | < 0.01 µM | > 100 µM |
| N[C@H](CCC(=O)N[C@@H](Cc1c[nH]c2ccccc12)C(=O)O)C(=O)O | > 100 µM | > 100 µM |
| CN(C)CCNCCN |  | > 100 µM |
| Nc1ccccc1O.O.O=C(O)C1[O][Sb][O]C1C(=O)O (stereo not drawn) | 10.8 µM | > 100 µM |
| O=C(c1ccco1)c1c(C(F)(F)F)n([O-])c2ccc(C(F)(F)F)cc2[n+]1=O | 0.0912 µM | 0.313 µM |
| OC(c1cc(-c2ccc(C(F)(F)F)cc2)nc(C(F)(F)F)c1)C1CCCCN1 (stereo not drawn) | 1.32 µM | 3.16 µM and 4.34 µM |
| CC(C)CC(C/C=C1/CC(CO)(COC(=O)C(C)(C)C)OC1=O)CC(C)C (stereo not drawn) |  | 23.6 µM and > 41.6 µM |
| O=C(Nc1cc(Nc2ncccc2-c2ncnc3nc[nH]c23)ccc1F)c1cc(C(F)(F)F)cc(C(F)(F)F)c1 | 2.32 µM | 6.67 µM |

Test system: HL-60(TB) leukemia
Test: NCI tumour cell line growth inhibition, 48 h

| SMILES | GI50 | TGI |
| --- | --- | --- |
| O=C1CCCN1c1ccccc1I(=O)=O | > 100000 nM | > 100 µM |
| COC(=O)C1=COC(C)C2CN3CCc4c([nH]c5ccccc45)C3CC12 (stereo not drawn) | 17500 nM and 46100 nM | 41.7 µM and > 100 µM |
| O=C(NCc1ccc(Cn2c(=O)sn(-c3ccccc3)c2=O)cc1)OCc1ccc2cccc(O)c2n1 | 1240 nM | > 20.5 µM |
| COC(c1ccc(C(C)(C)C)cc1)(c1ccc(C(C)(C)C)cc1)c1ccc(C(C)(C)C)cc1 |  | > 100 µM |
| CC(C)c1[nH]nc2c1N=C(c1ccccc1Cl)c1cc([N+](=O)[O-])ccc1N2 | 4990 nM | 12.2 µM |
| Nc1cc2c(cc1Br)[nH]c(=O)c1ccccc12 | 10800 nM | 54.3 µM |
| COc1ccc(-c2nccn2-c2ccc(OC)cc2)cc1 | 14200 nM | 34.2 µM |
| O=C(/C=C/c1ccccc1)c1ccccc1 |  | > 10 µM |
| CC(C)[C@H](O)C(=O)N[C@@H](C)C(=O)N[C@@H]1C(=O)N(C)CCc2ccccc21 | > 100000 nM | > 100 µM |
| C=CC(=O)N1CN(C(=O)C=C)CN(C(=O)C=C)C1 | 3370 nM | 10.3 µM |
| COc1ccc(-c2cnnn2-c2nonc2-n2cccc2)cc1 | 177 nM | 0.547 µM |
| ClC(Cl)=C1C(=C(Cl)Cl)C(Cl)(Cl)C1(Cl)Cl | 259 nM | 0.66 µM and 2.11 µM |
| C#CCOc1cccc(Nc2ncnc3c(NC(=O)C=C)cccc23)c1 | 18900 nM | > 100 µM |
| CO[C@H]1Nc2c(ccc(C)c2O)C(=O)N2C=C(/C=C/C(N)=O)C[C@@H]12 |  | 0.456 µM |
| O=C(/C(=C\c1c(-c2ccccc2)[nH]c2ccccc12)S(=O)(=O)c1ccccc1)c1ccccc1 | 4980 nM | > 100 µM |
| COc1ccc(C(=O)c2cc(OC)c(OC)c(OC)c2)cc1OC |  | 11.7 µM |
| CCNC(=O)/C(=C/c1ccc(OC)cc1)c1cc(OC)c(OC)c(OC)c1 |  | 21.9 µM |
| CCCc1cc(=O)n2c(C(=O)Nc3ccc(Cl)cc3C)c(C(=O)Nc3ccc(F)cc3)sc2n1 | 1330 nM | 23.8 µM |
| Cc1ccc(OCCOCCOCCOCCOc2ccc(C)n(O)c2=S)c(=S)n1O | 110 nM | 5.95 µM |
| N[C@H](CCC(=O)N[C@@H](Cc1c[nH]c2ccccc12)C(=O)O)C(=O)O | > 100000 nM | > 100 µM |
| CN(C)CCNCCN |  | > 100 µM |
| Nc1ccccc1O.O.O=C(O)C1[O][Sb][O]C1C(=O)O (stereo not drawn) | 1860 nM | 10.6 µM |
| O=C(c1ccco1)c1c(C(F)(F)F)n([O-])c2ccc(C(F)(F)F)cc2[n+]1=O | 69.6 nM | 0.31 µM |
| OC(c1cc(-c2ccc(C(F)(F)F)cc2)nc(C(F)(F)F)c1)C1CCCCN1 (stereo not drawn) | 1430 nM | 3.67 µM and 4.11 µM |
| CC(C)CC(C/C=C1/CC(CO)(COC(=O)C(C)(C)C)OC1=O)CC(C)C (stereo not drawn) | 154 nM and 460 nM | 16.9 µM and 16.7 µM |
| O=C(Nc1cc(Nc2ncccc2-c2ncnc3nc[nH]c23)ccc1F)c1cc(C(F)(F)F)cc(C(F)(F)F)c1 | 439 nM | 8.44 µM |
| CCc1ccc2c(c1)C(=O)c1c-2n(CCCN=[N+]=[N-])c(=O)c2cc([N+](=O)[O-])ccc12 | > 50000 nM | > 50 µM |
| CCC/C=C/C=C/C1CC(O)C(O)C(=O)C1CO (stereo not drawn) |  | > 100 µM |
